Measurements as given in the NIST ThermoML archive (doi:10.1016/j.fluid.2015.07.030).

Assay: refractive index (other wavelength) (dimensionless); xn = mol fraction of the nth substance listed
Details: 95.99 kPa, Liquid, Standard Abbe refractometry

OCCOCCOCCO [triethylene glycol] + O
Details	refractive index
293.15 K, Wavelength=706.5 nm, x2 = 0.7835	1.41874
293.15 K, Wavelength=706.5 nm, x2 = 0.8184	1.41353
293.15 K, Wavelength=706.5 nm, x2 = 0.8473	1.40762
293.15 K, Wavelength=706.5 nm, x2 = 0.8719	1.40038
293.15 K, Wavelength=706.5 nm, x2 = 0.8926	1.39232
293.15 K, Wavelength=706.5 nm, x2 = 0.9106	1.387
293.15 K, Wavelength=706.5 nm, x2 = 0.9254	1.37665
293.15 K, Wavelength=706.5 nm, x2 = 0.9303	1.37778
293.15 K, Wavelength=706.5 nm, x2 = 0.9391	1.37396
293.15 K, Wavelength=706.5 nm, x2 = 0.951	1.36871
293.15 K, Wavelength=706.5 nm, x2 = 0.9599	1.36106
293.15 K, Wavelength=706.5 nm, x2 = 0.9708	1.35328
293.15 K, Wavelength=706.5 nm, x2 = 0.979	1.34824
293.15 K, Wavelength=706.5 nm, x2 = 0.9867	1.3421
293.15 K, Wavelength=706.5 nm, x2 = 0.9936	1.33593
298.15 K, Wavelength=404.7 nm, x2 = 0	1.46749
298.15 K, Wavelength=404.7 nm, x2 = 0.1056	1.46604
298.15 K, Wavelength=404.7 nm, x2 = 0.2069	1.46428
298.15 K, Wavelength=404.7 nm, x2 = 0.3104	1.46096
298.15 K, Wavelength=404.7 nm, x2 = 0.4844	1.45699
298.15 K, Wavelength=404.7 nm, x2 = 0.5016	1.45596
298.15 K, Wavelength=404.7 nm, x2 = 0.5952	1.44911
298.15 K, Wavelength=404.7 nm, x2 = 0.6016	1.44913
298.15 K, Wavelength=404.7 nm, x2 = 0.6788	1.44244
298.15 K, Wavelength=404.7 nm, x2 = 0.7835	1.43274
298.15 K, Wavelength=404.7 nm, x2 = 0.8184	1.42742
298.15 K, Wavelength=404.7 nm, x2 = 0.8473	1.42101
298.15 K, Wavelength=404.7 nm, x2 = 0.8719	1.41326
298.15 K, Wavelength=404.7 nm, x2 = 0.8926	1.40601
298.15 K, Wavelength=404.7 nm, x2 = 0.9106	1.40032
298.15 K, Wavelength=404.7 nm, x2 = 0.9254	1.38959
298.15 K, Wavelength=404.7 nm, x2 = 0.9303	1.39111
298.15 K, Wavelength=404.7 nm, x2 = 0.9391	1.38696
298.15 K, Wavelength=404.7 nm, x2 = 0.951	1.38004
298.15 K, Wavelength=404.7 nm, x2 = 0.9599	1.374
298.15 K, Wavelength=404.7 nm, x2 = 0.9708	1.36592
298.15 K, Wavelength=404.7 nm, x2 = 0.979	1.36072
298.15 K, Wavelength=404.7 nm, x2 = 0.9867	1.35466
298.15 K, Wavelength=404.7 nm, x2 = 0.9936	1.34824
298.15 K, Wavelength=435.8 nm, x2 = 0	1.4639
298.15 K, Wavelength=435.8 nm, x2 = 0.1056	1.46248
298.15 K, Wavelength=435.8 nm, x2 = 0.2069	1.46074
298.15 K, Wavelength=435.8 nm, x2 = 0.3104	1.45745
298.15 K, Wavelength=435.8 nm, x2 = 0.4844	1.45354
298.15 K, Wavelength=435.8 nm, x2 = 0.5016	1.45252
298.15 K, Wavelength=435.8 nm, x2 = 0.5952	1.44572
298.15 K, Wavelength=435.8 nm, x2 = 0.6016	1.44575
298.15 K, Wavelength=435.8 nm, x2 = 0.6788	1.43909
298.15 K, Wavelength=435.8 nm, x2 = 0.7835	1.42946
298.15 K, Wavelength=435.8 nm, x2 = 0.8184	1.42417
298.15 K, Wavelength=435.8 nm, x2 = 0.8473	1.41783
298.15 K, Wavelength=435.8 nm, x2 = 0.8719	1.41082
298.15 K, Wavelength=435.8 nm, x2 = 0.8926	1.40293
298.15 K, Wavelength=435.8 nm, x2 = 0.9106	1.39727
298.15 K, Wavelength=435.8 nm, x2 = 0.9254	1.38664
298.15 K, Wavelength=435.8 nm, x2 = 0.9303	1.38813
298.15 K, Wavelength=435.8 nm, x2 = 0.9391	1.38402
298.15 K, Wavelength=435.8 nm, x2 = 0.951	1.37716
298.15 K, Wavelength=435.8 nm, x2 = 0.9599	1.37117
298.15 K, Wavelength=435.8 nm, x2 = 0.9708	1.36317
298.15 K, Wavelength=435.8 nm, x2 = 0.979	1.35801
298.15 K, Wavelength=435.8 nm, x2 = 0.9867	1.35198
298.15 K, Wavelength=435.8 nm, x2 = 0.9936	1.34565
298.15 K, Wavelength=486.1 nm, x2 = 0	1.45975
298.15 K, Wavelength=486.1 nm, x2 = 0.1056	1.45834
298.15 K, Wavelength=486.1 nm, x2 = 0.2069	1.45661
298.15 K, Wavelength=486.1 nm, x2 = 0.3104	1.45333
298.15 K, Wavelength=486.1 nm, x2 = 0.4844	1.44943
